The values that follow come from patent US20120142667A1, “PYRIMIDINE DERIVATIVES AS ZAP-70 INHIBITORS” (priority 2009, published 2012).

This assay addresses T1, ZAP-70 (Homo sapiens, UniProt P43403).
T1 construct: endogenous in cells; host or cells: cell lysate
T1 sequence (P43403 1-619): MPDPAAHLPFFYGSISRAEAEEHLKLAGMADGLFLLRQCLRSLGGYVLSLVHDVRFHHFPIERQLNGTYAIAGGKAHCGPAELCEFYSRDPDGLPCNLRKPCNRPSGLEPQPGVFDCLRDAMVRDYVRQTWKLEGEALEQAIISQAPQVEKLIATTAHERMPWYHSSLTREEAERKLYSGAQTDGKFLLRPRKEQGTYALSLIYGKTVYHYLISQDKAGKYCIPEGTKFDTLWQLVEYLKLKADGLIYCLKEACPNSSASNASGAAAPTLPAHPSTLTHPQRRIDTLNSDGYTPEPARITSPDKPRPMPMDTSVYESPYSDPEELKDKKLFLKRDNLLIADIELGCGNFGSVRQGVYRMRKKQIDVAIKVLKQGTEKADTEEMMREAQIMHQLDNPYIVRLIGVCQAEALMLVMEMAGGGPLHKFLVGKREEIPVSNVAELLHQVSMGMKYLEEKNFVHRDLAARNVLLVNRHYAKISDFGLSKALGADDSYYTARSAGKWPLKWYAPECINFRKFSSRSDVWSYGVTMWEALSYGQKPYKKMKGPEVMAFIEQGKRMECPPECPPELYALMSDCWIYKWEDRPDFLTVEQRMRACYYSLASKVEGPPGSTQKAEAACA
Kind of assay: ZAP-70 kinobeads assay. It counts as binding. Particulars: cell lysate. As for the experimental part:
The compounds of the present invention as described in the previous examples can be tested in the ZAP-70 kinobeads assay as described (EP-A 1862802 and WO-A 2007/137867). Briefly, test compounds (at various concentrations) and the affinity matrix with the immobilized aminopyrido-pyrimidine ligand 24 are added to cell lysate aliquots and allowed to bind to the proteins in the lysate sample. After the incubation time the beads with captured proteins are separated from the lysate. Bound proteins are then eluted and the presence ZAP-70 is detected and quantified using a specific antibody in a dot blot procedure and the Odyssey infrared detection system.

Structures can show the parent of a compound that is named as a salt.

`COc1ccccc1Nc1ncc(F)c(Nc2ccccc2NS(C)(=O)=O)n1` [Example 8, N-(2-(5-fluoro-2-(2-methoxyphenylamino)pyrimidin-4-ylamino)phenyl)methanesulfonamide] returned an IC50 of 1000 to 10000 nM. The figure for `COc1ccc(Nc2nc(Nc3c[nH]c(=O)cc3C)ncc2Cl)c(NS(C)(=O)=O)c1` [Example 82, N-(2-(5-chloro-2-(4-methyl-6-oxo-1,6-dihydropyridin-3-ylamino)pyrimidin-4-ylamino)-5-methoxyphenyl)methanesulfonamide] is 100 to 1000 nM; for `COc1ccc(OC)c(Nc2ncc(Br)c(Nc3ccccc3NS(C)(=O)=O)n2)c1` [Example 7, N-(2-(5-bromo-2-(2,5-dimethoxyphenylamino)pyrimidin-4-ylamino)phenyl)methanesulfonamide] it is 100 to 1000 nM. `COc1ccc(Nc2nc(Nc3ccc(F)c(F)c3OC)ncc2Cl)c(NS(C)(=O)=O)c1` [Example 46, N-(2-(5-chloro-2-(3,4-difluoro-2-methoxyphenylamino)pyrimidin-4-ylamino)-5-methoxyphenyl)methanesulfonamide] displayed an IC50 of 1000 to 10000 nM. Turning to `CS(=O)(=O)Nc1ccccc1Nc1nc(Nc2ccccc2F)ncc1Br` [Example 17, N-(2-(5-bromo-2-(2-fluorophenylamino)pyrimidin-4-ylamino)phenyl)methanesulfonamide hydrochloride], the IC50 fell in the range of 100 to 1000 nM. The figure for `COc1ccc(Nc2nc(Nc3cc(OC)c(OC)cc3Cl)ncc2Cl)c(NS(C)(=O)=O)c1` [Example 53, N-(2-(5-chloro-2-(2-chloro-4,5-dimethoxyphenylamino)pyrimidin-4-ylamino)-5-methoxyphenyl)methanesulfonamide] is 100 to 1000 nM; for `COc1ccc(Nc2nc(Nc3ccc(F)cc3OC)ncc2Cl)c(NS(C)(=O)=O)c1` [Example 43, N-(2-(5-chloro-2-(4-fluoro-2-methoxyphenylamino)pyrimidin-4-ylamino)-5-methoxyphenyl)methanesulfonamide] it is 100 to 1000 nM. The figure for `COc1ccc(Nc2nc(Nc3cc(C)ccc3F)ncc2Cl)c(NS(C)(=O)=O)c1` [Example 49, N-(2-(5-chloro-2-(2-fluoro-5-methylphenylamino)pyrimidin-4-ylamino)-5-methoxyphenyl)methanesulfonamide] is 100 to 1000 nM. Under `COc1ccc(Nc2nc(Nc3ccccc3C)ncc2Cl)c(NS(C)(=O)=O)c1` [Example 50, N-(2-(5-chloro-2-(o-tolylamino)pyrimidin-4-ylamino)-5-methoxyphenyl)methanesulfonamide hydrochloride] stands 100 to 1000 nM; under `COc1ccc(Nc2nc(Nc3cccc(OC)c3C)ncc2Cl)c(NS(C)(=O)=O)c1` [Example 54, N-(2-(5-chloro-2-(3-methoxy-2-methylphenylamino)pyrimidin-4-ylamino)-5-methoxyphenyl)methanesulfonamide], 100 to 1000 nM; under `COc1ccc(Nc2nc(Nc3cc(OC)c(CC(=O)O)cc3OC)ncc2Cl)c(NS(C)(=O)=O)c1` [Example 100, 2-(4-((5-chloro-4-((4-methoxy-2-(methylsulfonamido)phenyl)amino)pyrimidin-2-yl)amino)-2,5-dimethoxyphenyl)acetic acid], no more than 100 nM. For `COc1ccc(Nc2nc(Nc3cccc(F)c3F)ncc2Cl)c(NS(C)(=O)=O)c1` [Example 60, N-(2-(5-chloro-2-(2,3-difluorophenylamino)pyrimidin-4-ylamino)-5-methoxyphenyl)methanesulfonamide hydrochloride], the IC50 lay within 1000 to 10000 nM. The figure for `COc1ccc(Nc2nc(Nc3cc(F)ccc3OC)ncc2Cl)c(NS(C)(=O)=O)c1` [Example 42, N-(2-(5-chloro-2-(5-fluoro-2-methoxyphenylamino)pyrimidin-4-ylamino)-5-methoxyphenyl)methanesulfonamide] is 100 to 1000 nM; for `COc1ccc(Nc2nc(Nc3cc(OCCN)ccc3F)ncc2Cl)c(NS(C)(=O)=O)c1` [Example 66, N-(2 (2 (5 (2 aminoethoxy)-2-fluorophenylamino)-5-chloropyrimidin-4-ylamino)-5-methoxyphenyl)methanesulfonamide] it is 100 to 1000 nM.

What is called IC50 is the concentration that gives 50% inhibition. A high value points to a need for much substance.
